Test results: the METLIN SMRT retention time set (Domingo-Almenara et al. 2019)

Experiment: gradient 5% acetonitrile 3 min, to 50% in 2 min, to 85% in 15 min, held 3 min, 100 µL/min
Conditions: column: Zorbax Extend-C18 2.1 x 50 mm; eluents: water / acetonitrile, 0.1% formic acid
In short: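 Standards, all pure, were combined into mixtures of ~100 molecules and run at 100 μL/min on a Zorbax Extend-C18 column (2.1 × 50 mm, 1.8 μm) with water and acetonitrile, each containing 0.1% formic acid. A coupled quadrupole time-of-flight mass spectrometer operated in positive and negative ionization mode. Retention time values come from computationally picked adduct peaks, each inspected manually.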

Compound	RP-LC retention time [s]
CCOC(=O)c1ccc(NC(=O)Cc2csc3nc(-c4ccc(C)c(C)c4)cn23)cc1	922
CCN1C(=O)COc2ccc(-c3nc(NC(=O)C(C)(C)C)sc3C)cc21	643
CCn1c(=O)c(N2CCN(C(=O)c3cccs3)CC2)nc2cccnc21	900
COc1cc(CN2CCc3nc(N4CCCC4)ncc3C2)ccc1OC(C)C	641
Cc1ccc(C)c(N2CCN(c3ccc(-c4nc(-c5cccc(F)c5)no4)cn3)CC2)c1	602
CCc1ccc(C2=C(C)C(N3CCCN(C(=O)NC)CC3)=NS2(=O)=O)cc1	746
Cc1ccc(Sc2cncc3sc(C(N)=O)cc23)cc1	836
Cc1oc2c(C)c3oc(=O)c(CC(=O)N4CCC(C(N)=O)CC4)c(C)c3cc2c1C	735
Cc1oc(C2CCN(C(=O)C3CCN(S(=O)(=O)N4CCOCC4)CC3)CC2)nc1C(=O)N1CCCC1	677
CCn1c(=O)oc2cc(-c3noc(-c4ccc(OC)cc4)n3)ccc21	976
COc1ccc(Cl)cc1C(=O)Nc1cc(-c2cccnc2)no1	902
O=C(NCc1csc(C2CCCN(C(=O)c3ccccc3)C2)n1)C1CC1 (stereo not drawn)	693
CNC(=O)C1CCCN(S(=O)(=O)c2ccc(OC)c(OC)c2)C1 (stereo not drawn)	657
CCCn1ccc2sc(C)c(C(=O)NCCN3CCCCCC3)c2c1=O	657
O=C(c1cccn1Cc1noc(-c2ccc(Cl)cc2)n1)N1CCCC1	1020
Cc1ccc(S(=O)(=O)Nc2ccc(-c3cn4cccc(C)c4n3)cc2)c(C)c1	688
O=C(NC1CC1)c1cc(-c2ccc(F)cc2)n[nH]1	705
CCn1cc(CCNC(=O)Nc2ccc(Cl)cc2F)c2cccnc21	824
N#Cc1cccc(S(=O)(=O)N2CCc3nc(-c4ccc(Cl)cc4)ncc3C2)c1	1130

Compound	RP-LC retention time [s]
C=CCc1ccccc1OCC(O)CNC (stereo not drawn)	566
CCOC(=O)c1c(C)nc(C)c(C(=O)OCC)c1-c1cccnc1	810
O=C(NCCCN1CCCC1=O)c1ccc(-c2ccc(N3CCSCC3)nc2)cc1	619
CN1C(=O)CCc2cc(NC(=O)C3CCCCC3)ccc21	752
N#CCCSc1ccccc1NC(=O)c1ccc(Cl)s1	908
Cc1cc(=O)n(CC(=O)Nc2ccc(F)cc2C)c(N)n1	586
O=C(NCC1CCCO1)C1CCN(c2ccc(=O)n(-c3cccc(Cl)c3)n2)CC1 (stereo not drawn)	721
CCc1ccc(-c2nc(C3CC(=O)N(c4ccc(F)c(Cl)c4)C3)no2)cc1 (stereo not drawn)	1200
Cc1cccc(NC(=O)N2CCCC(C)(C(=O)NCc3ccc(F)cc3)C2)c1C (stereo not drawn)	929
CC(=O)Nc1cc(C(=O)NC2CCCC2)c2ccc(C)nc2c1	600
O=C(C1CCN(c2ncccc2-c2nc(-c3ccccc3)no2)CC1)N1CCOCC1	839
CC(C)c1ccc(-c2nc(C3CC(=O)N(c4ccc(F)cc4)C3)no2)cc1 (stereo not drawn)	1180
C=CCn1c(=O)c2c(nc3n2CCN3c2ccc(OC)cc2)n(C)c1=O	786
O=C(Nc1ccc2nc(N3CCN(C4CCCCC4)CC3)cc(C(=O)O)c2c1)c1ccccc1Cl	627
O=C(CCCc1ccccc1)N1CCN(c2nc(CN3CCCCC3)cs2)CC1	692
COc1ccc(Cl)cc1C(=O)N1CCN(c2cc(-n3nc(C)cc3C)nc(C)n2)CC1	988
Cc1ccc(F)cc1NC(=O)c1sc(-c2cn(C)c3ncccc23)nc1C	983
C=CCNC(=O)Cc1nnc2cc(-c3nc(C4CC4)no3)ccn12	662
COc1ccc(NC(=O)N2CCN(c3nc4ccncc4n(CC(C)C)c3=O)CC2)cc1	587

Compound	RP-LC retention time [s]
CN1CCCN(C(=O)CN2CCCc3nc(C4CC4)ncc3C2=O)CC1	570
COCCNc1c(-c2ccc(F)cc2)nc2sc(C(=O)N(C)C)c(C)n12	702
CSc1ccc(NC(=O)C2CCN(c3cnc4nc(C)c(C)nc4c3)CC2)cc1	767
CC(C)NCc1ccc(-c2ccc(Cl)cc2)o1	669
COc1cc(NC(=O)N2CCN(c3cc(C)nc(N4CCCCC4)n3)CC2)cc(OC)c1OC	669
COCc1noc([C@@H]2CC(F)(F)CN2C(=O)c2nccn2C)n1	716
Cc1cccc(N2CCN(C(=O)Cn3ccc4ccc(N5CCOCC5)nc43)CC2)c1	959
O=C(Nc1nc(-c2cccc([N+](=O)[O-])c2)cs1)c1ccc(Cl)cc1Cl	1060
Cc1nnc2ccc(C(=O)NC(C)C)cn12	590
O=C(CCC[C@@H]1[C@H]2CCCN3CCC[C@@H](CN1C(=O)C1CC1)[C@@H]23)Nc1ccccc1	609
CCn1ncc(Cl)c1C(=O)N1CCCC1c1cccc(F)c1 (stereo not drawn)	922
CC1=CN2C(c3cccc([N+](=O)[O-])c3)=NON(c3ccc(C)cn3)C2C=C1 (stereo not drawn)	1190
O=[N+]([O-])c1ccc(-c2nc(N3CCCCCC3)c3ccccc3n2)cc1	820
Cc1ccc(C(=O)N2CCN(c3nnc4ccc(Cl)cn34)CC2)cc1F	760
C=CCn1c(SCC#CCO)nc2ccccc2c1=O	744
COc1ccc(-c2noc(C3CC(=O)N(c4cc(Cl)ccc4OC)C3)n2)cc1OC (stereo not drawn)	884
O=S(=O)(c1ccc(Br)cc1)N1CCC(c2noc(-c3ccccc3)n2)CC1	1180
COc1ccc(C(=O)N2CCN(C(=O)c3nnn4c3COC(c3ccc(F)cc3)C4)CC2)cc1F (stereo not drawn)	844

More lines, now with the values ahead:

RP-LC retention time [s]	Compound
1190	COc1ccccc1N1CCN(c2cc(SCC(=O)Nc3cc(F)ccc3Cl)ncn2)CC1
540	COc1ccccc1NC(=O)N1CCc2[nH]cnc2C1c1ccncc1 (stereo not drawn)
1290	CC(C)Cn1c(=O)c2ccccc2n(Cc2nc(-c3cccc(Br)c3)no2)c1=O
642	O=C1C(N2CCN(S(=O)(=O)c3ccccc3)CC2)CCN1CCc1ccccc1 (stereo not drawn)
1030	Cc1cccc(-c2noc(Cn3c(=O)n(-c4ccccc4F)c(=O)c4sccc43)n2)c1
923	CCOC(=O)C1C(=O)C=C(c2ccc(OC)c(OC)c2)CC1c1cccc(OC)c1OC (stereo not drawn)
902	O=C(CCc1ccccc1)NC1(c2nc(-c3ccncc3)no2)CCCCC1
857	CCN(CC)C(=O)CN1C(=O)C2(NC(C)C3C(=O)N(Cc4ccccc4)C(=O)C32)c2ccccc21 (stereo not drawn)
706	CCN(CC)c1ccc(CN(C(=O)Cc2coc3ccc(C)cc23)C2CCS(=O)(=O)C2)cc1 (stereo not drawn)
627	O=C(NCc1ccccn1)C1CC(=O)N(CCc2c[nH]c3ccc(Cl)cc23)C1 (stereo not drawn)
603	CCn1cc(CN2CCC(C(=O)NCc3ccc(N(C)C)cc3)CC2)c2cc(OC)ccc21
693	CC(=O)N1CCc2cc(N3CC(C(=O)NCc4cccc(C)c4)CC3=O)ccc21 (stereo not drawn)
1020	CCOc1ccc(S(=O)(=O)N2CCCC(C(=O)N3CCN(c4ccccc4)CC3)C2)cc1 (stereo not drawn)
1280	Cc1ccsc1C(=O)N1CC(Oc2cccc(-c3nc(-c4ccccc4)no3)c2)C1
1060	CCn1nc(C(=O)Nc2nc3c(s2)CCc2ccccc2-3)cc1C
926	O=C(Nc1cccc(C(F)(F)F)c1)NC1CCN(c2ccccc2)C1=O (stereo not drawn)

RP-LC retention time [s]	Compound
972	Cc1ccc(CNC(=O)N2c3ccccc3CC2c2nc(C3CC3)no2)cc1 (stereo not drawn)
705	CN1C(=O)NC2(CCN(C(=O)C3c4ccccc4Oc4ccccc43)CC2)C1=O
1120	CCOC(=O)c1ccccc1NC(=O)c1c2c(cn(-c3ccccc3)c1=O)C(=O)CC(C)(C)C2
879	COc1ccc(CN2C(=O)CC(c3ccc(OC)c(OC)c3)CC2=O)cc1
706	Nc1nc(-c2ccccc2)c(C(=O)Nc2ccccc2)s1
734	CC(C)CN(Cc1cccnc1)C1CN(S(=O)(=O)Cc2ccccc2F)C1
1010	Cc1ccc(N2C(=O)C3N=NN(Cc4nc(-c5ccccc5Br)no4)C3C2=O)cc1F (stereo not drawn)
727	CC(=O)c1ccc(NC(=O)Cn2c(N3CCc4ccccc4C3)nc(C)cc2=O)cc1
788	O=[N+]([O-])c1ccccc1CSc1nnc2sc3ccccc3n12
946	CCCCOc1ccc(-c2cc3c4nnc(CCC(=O)NCc5cccc(OC)c5)n4ccn3n2)cc1
1180	Cc1sc(C)c(S(=O)(=O)NCCc2ccccc2)c1-c1cc(C(F)(F)F)on1
815	CCOC(=O)c1[nH]c(C)c(CCC(=O)N2CCC(C(=O)NCc3ccc(SC)cc3)CC2)c1C
975	Cc1cc2c(c(=O)n(-c3ccccc3)c(=O)n2CC(=O)Nc2ccc(C(C)C)cc2)n1C
885	Cc1nc(-c2noc(-c3ccccc3)n2)cn1CC(=O)Nc1ccc(Cl)cc1
811	COc1ccccc1NC(=O)Cn1ccc2ccc(-c3nnc(C)o3)cc21
795	CCN(CC)S(=O)(=O)N1CCC(C(=O)NCc2ccc(OC)cc2)CC1
